# Reference: PubChem BioAssay (NCI)
#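 Grown in 96-well plates, cells were treated for 48 hours with each compound at five concentrations. Insufficient inhibition: endpoint recorded as highest concentration tested. GI50: concentration for 50% inhibition of growth. At the TGI there is no net growth.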
# Tests used:
# Experiment in all cases: NCI tumour cell line growth inhibition, 48 h
# [1] = tested on: MALME-3M melanoma
# [2] = tested on: SK-MEL-28 melanoma
# [3] = tested on: SW-620 colon
# [4] = tested on: COLO 205 colon
# [5] = tested on: HOP-92 NSCLC
# [6] = tested on: SK-MEL-2 melanoma
# [7] = tested on: SNB-75 CNS
# [8] = tested on: RPMI-8226 leukemia
# [9] = tested on: CAKI-1 renal
# [10] = tested on: 786-0 renal
# [11] = tested on: UACC-62 melanoma
# [12] = tested on: SF-295 CNS
# [13] = tested on: A498 renal
# [14] = tested on: NCI-H226 lung
# [15] = tested on: HS 578T breast
# [16] = tested on: NCI-H23 lung
# [17] = tested on: LOX IMVI melanoma
# [18] = tested on: HCT-15 colon
# [19] = tested on: UACC-257 melanoma
# [20] = tested on: SF-539 CNS
# [21] = tested on: HCC-2998 colon
# [22] = tested on: MDA-MB-435
# [23] = tested on: OVCAR-8 ovarian
# [24] = tested on: HCT-116 colon
# [25] = tested on: SF-268 CNS
# [26] = tested on: U251 CNS
# [27] = tested on: MDA-MB-231 breast
# [28] = tested on: IGROV1 ovarian
# [29] = tested on: OVCAR-3 ovarian
# [30] = tested on: SN12C renal
# [31] = tested on: SK-OV-3 ovarian
# [32] = tested on: NCI-H460 lung
# [33] = tested on: HOP-62 NSCLC
# [34] = tested on: T-47D breast
# [35] = tested on: NCI/ADR-RES ovarian
# [36] = tested on: HL-60(TB) leukemia
# [37] = tested on: A549 NSCLC
# [38] = tested on: SNB-19 CNS
# [39] = tested on: RXF 393 renal
# [40] = tested on: TK-10 renal
# [41] = tested on: ACHN renal
# [42] = tested on: EKVX NSCLC
# [43] = tested on: OVCAR-4 ovarian
# [44] = tested on: NCI-H522 lung
# [45] = tested on: M14 melanoma
# [46] = tested on: PC-3 prostate
# [47] = tested on: MOLT-4 leukemia
# [48] = tested on: CCRF-CEM leukemia
# [49] = tested on: OVCAR-5 ovarian
# [50] = tested on: KM12 colon
# [51] = tested on: SK-MEL-5 melanoma
# [52] = tested on: K-562 leukemia
# [53] = tested on: HT29 colon
# [54] = tested on: SR leukemia
# [55] = tested on: MCF7 breast
# [56] = tested on: DU-145 prostate
# [57] = tested on: BT-549 breast
# [58] = tested on: UO-31 renal
smiles,measurement,setting,value
Cc1ccc(-c2nc3nc(-c4ccc(Br)cc4)nc(N4CCCNCC4)c3o2)cc1,GI50,[1],15.4 µM
same,TGI,[1],30.1 µM
same,GI50,[2],17.4 µM
same,TGI,[2],31.8 µM
same,GI50,[3],1.84 µM
same,TGI,[3],3.57 µM
same,GI50,[4],5.56 µM
same,TGI,[4],20.2 µM
same,GI50,[5],12.7 µM
same,TGI,[5],29.5 µM
same,GI50,[6],18.5 µM
same,TGI,[6],36.3 µM
same,GI50,[7],10.5 µM
same,TGI,[7],22.4 µM
same,GI50,[8],2.58 µM
same,TGI,[8],6.63 µM
same,GI50,[9],1.58 µM
same,TGI,[9],2.92 µM
same,GI50,[10],3.95 µM
same,TGI,[10],16 µM
same,GI50,[11],17 µM
same,TGI,[11],31.9 µM
same,GI50,[12],17.9 µM
same,TGI,[12],33 µM
same,GI50,[13],13.9 µM
same,TGI,[13],27.5 µM
same,GI50,[14],17 µM
same,TGI,[14],38.9 µM
same,GI50,[15],17.2 µM
same,TGI,[15],37.1 µM
same,GI50,[16],17.1 µM
same,TGI,[16],34.9 µM
same,GI50,[17],1.76 µM
same,TGI,[17],3.34 µM
same,GI50,[18],1.72 µM
same,TGI,[18],3.25 µM
same,GI50,[19],18.2 µM
same,TGI,[19],39.7 µM
same,GI50,[20],3.27 µM
same,TGI,[20],11.4 µM
same,GI50,[21],15.4 µM
same,TGI,[21],30.2 µM
same,GI50,[22],1.88 µM
same,TGI,[22],3.74 µM
same,GI50,[23],2.28 µM
same,TGI,[23],5.28 µM
same,GI50,[24],1.82 µM
same,TGI,[24],3.36 µM
same,GI50,[25],3.63 µM
same,TGI,[25],15.2 µM
same,GI50,[26],1.77 µM
same,TGI,[26],3.45 µM
same,GI50,[27],1.93 µM
same,TGI,[27],4.05 µM
same,GI50,[28],1.84 µM
same,TGI,[28],3.61 µM
same,GI50,[29],1.84 µM
same,TGI,[29],3.36 µM
same,GI50,[30],10.5 µM
same,TGI,[30],23.7 µM
same,GI50,[31],17.5 µM
same,TGI,[31],33.4 µM
same,GI50,[32],1.9 µM
same,TGI,[32],3.61 µM
same,GI50,[33],15.8 µM
same,TGI,[33],35.1 µM
same,GI50,[34],3.06 µM
same,TGI,[34],13.9 µM
same,GI50,[35],2.2 µM
same,TGI,[35],4.58 µM
same,GI50,[36],1.99 µM
same,TGI,[36],4.07 µM
same,GI50,[37],1.96 µM
same,TGI,[37],4.04 µM
same,GI50,[38],14.1 µM
same,TGI,[38],27.6 µM
same,GI50,[39],13.7 µM
same,TGI,[39],27.5 µM
same,GI50,[40],20 µM
same,TGI,[40],34.8 µM
same,GI50,[41],1.91 µM
same,TGI,[41],3.59 µM
same,GI50,[42],13.8 µM
same,TGI,[42],28.4 µM
same,GI50,[43],7.2 µM
same,TGI,[43],21 µM
same,GI50,[44],1.86 µM
same,TGI,[44],4.5 µM
same,GI50,[45],4.64 µM
same,TGI,[45],18.1 µM
same,GI50,[46],2.48 µM
same,TGI,[46],7.52 µM
same,GI50,[47],2.08 µM
same,TGI,[47],4.14 µM
same,GI50,[48],2.35 µM
same,TGI,[48],5.57 µM
same,GI50,[49],16.3 µM
same,TGI,[49],30 µM
same,GI50,[50],1.93 µM
same,TGI,[50],3.82 µM
same,GI50,[51],16.7 µM
same,TGI,[51],31.6 µM
same,GI50,[52],2.31 µM
same,TGI,[52],4.98 µM
same,GI50,[53],1.86 µM
same,TGI,[53],3.54 µM
same,GI50,[54],1.78 µM
same,TGI,[54],4.4 µM
same,GI50,[55],1.78 µM
same,TGI,[55],3.51 µM
same,GI50,[56],1.92 µM
same,TGI,[56],3.55 µM
same,GI50,[57],16 µM
same,TGI,[57],34.6 µM
same,GI50,[58],2.12 µM
same,TGI,[58],7.04 µM
